The values that follow come from PubChem BioAssay (NCI).

SMILES strings stand for the structures.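 48-hour exposure; five concentrations; linearly interpolated endpoints. GI50 marks 50% less growth. TGI: total growth inhibition.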 Bounds are passed on as bounds.

Holding throughout (test): growth of human tumour cells (NCI), 48 h
The test system of experiment [1] is HCT-15 colon.
The test system of experiment [2] is M14 melanoma.
The test system of experiment [3] is OVCAR-5 ovarian.
The subject of experiment [4] is RPMI-8226 leukemia.
In experiment [5] the test system is SK-MEL-5 melanoma.
Experiment [6] has as its system SNB-75 CNS.
Experiment [7] concerns SW-620 colon.
For experiment [8], the system named is UO-31 renal.
Experiment [9] relates to LOX IMVI melanoma.

`O=Cc1ccc2c(c1-c1c(C=O)ccc3c1OCO3)OCO2`: the TGI in experiment [1], in experiment [2], in [3], in [4], in [5] and in [6] was above 100 µM in each case. The TGI in [7] and in experiment [8] was above 100 µM each time.

As for `CC(=O)[O][Ga]([Br])[O]C(C)=O`, the GI50 in experiment [9], in [2], in [3], in experiment [4], in [5] and in experiment [6] was above 100 µM in each case. In addition, the GI50 in experiment [7] and in experiment [8] was above 100 µM each time. Besides, the TGI in experiment [9], in experiment [2], in experiment [3], in experiment [4], in experiment [5] and in experiment [6] was above 100 µM each time. Moreover, the TGI in [7] and in experiment [8] was above 100 µM each time.

With `CCCO/S(=N\S(=O)(=O)c1ccccc1)c1ccccc1[N+](=O)[O-]` (configuration not stated), the TGI in [1], in experiment [9], in experiment [2], in experiment [3], in experiment [4] and in experiment [5] was above 100 µM throughout. Further, the TGI in [6], in [7] and in experiment [8] was above 100 µM throughout.

As to `N#CC(C(=O)C(=O)Nc1ccc(Cl)cc1)c1ccccc1` (configuration not stated), the TGI in experiment [1], in experiment [9], in experiment [2], in [3], in [4] and in experiment [5] was above 100 µM each time. For the same compound, the TGI in [6], in experiment [7] and in experiment [8] was above 100 µM in each case.

For `CC(C)N(CCn1c2c3ccccc3ccc2c2oc(=O)c3ccccc3c21)C(C)C`, the TGI is above 100 µM in experiment [1]; above 100 µM in [9]; above 100 µM in [2]; above 100 µM in experiment [3]; above 100 µM in [4]; 75.9 µM in experiment [6]. The TGI in [7] and in experiment [8] was above 100 µM in each case.

As for `CCOP(=O)(OCC)OC1C=CC2CCC1C2` (configuration not stated), the TGI is above 100 µM in [1]; above 100 µM in experiment [9]; above 100 µM in [2]; above 100 µM in experiment [3]; 54.2 µM in experiment [4]; above 100 µM in experiment [5]. Moreover, the TGI in [6] and in [8] was above 100 µM in each case.

On to `Cc1cc(NS(=O)(=O)c2ccc(Nc3c4ccccc4nc4c(C(=O)N5CCN(CCO)CC5)ccc(Cl)c34)cc2)no1`, for which the TGI in experiment [1], in [2], in experiment [3], in experiment [4], in experiment [5] and in [6] was above 100 µM in each case. The compound also showed a TGI in [8] above 100 µM.

On to `S=c1[nH]c(=S)c2nnn(-c3ccccc3)c2[nH]1`, for which the TGI in experiment [1], in [9], in [2], in experiment [3], in experiment [4] and in [5] was above 100 µM throughout. Moreover, the TGI in experiment [6], in experiment [7] and in [8] was above 100 µM in each case.

In the case of `COC(=O)/C=C1\CCC(C)O1` (configuration not stated), the TGI in experiment [1], in experiment [9], in [2], in experiment [3], in [4] and in experiment [5] was above 100 µM throughout. For the same compound, the TGI in experiment [6] was 94 µM; in experiment [7], above 100 µM; in experiment [8], above 100 µM.

`CC(C)C(=O)Nc1nc2c(ncn2C2OC(CO)C(O)C2O)c(=O)[nH]1` (configuration not stated): the TGI in experiment [1], in [9], in experiment [2], in experiment [3], in [4] and in experiment [5] was above 100 µM in each case. Further, the TGI in [6], in experiment [7] and in experiment [8] was above 100 µM in each case.

Take `Cc1cc(S(=O)(=O)O)c(NC(=O)C(=O)Cc2cc(=O)oc3cc(O)ccc23)cc1Cl`: the TGI in experiment [1], in experiment [9], in [2], in experiment [3], in [5] and in experiment [6] was above 100 µM in each case. The TGI in [7] and in experiment [8] was above 100 µM throughout.

On to `CC1COC(C)(C)P(=O)(c2ccccc2)C1` (configuration not stated), for which the TGI in experiment [1], in experiment [9], in [2], in [3], in experiment [4] and in [5] was above 100 µM in each case. Moreover, the TGI in experiment [6], in experiment [7] and in [8] was above 100 µM in each case.

For `CNS(=O)(=O)NNS(=O)(=O)c1ccc(Br)cc1`, the TGI in experiment [1], in experiment [9], in [2], in experiment [3], in experiment [4] and in [5] was above 100 µM throughout. Further, the TGI in [6], in experiment [7] and in [8] was above 100 µM each time.

For `CC(C)C(=O)NS(=O)(=O)c1ccccc1`, the TGI in experiment [9], in [2], in experiment [3], in experiment [4], in experiment [6] and in [7] was above 100 µM each time. The TGI in experiment [8] is above 100 µM.

For the compound `CCC1CCc2c(c(=O)oc3c2cc(OC)c2cccc(OC)c23)C1` (configuration not stated), the TGI in experiment [1] was above 100 µM; in experiment [2], above 100 µM; in experiment [3] it was above 100 µM; in [4] it was above 100 µM; in experiment [5], 80.9 µM; in experiment [6], above 100 µM. The TGI in experiment [8] is above 100 µM.
